Results on ten molecules are retold here after patent publication US12076331B2, “Inositol derivatives for use in pathological crystallization” (ETH Zurich, priority 2015, dated 2024).

“Also recorded” adds a separate entry of the source.

The nature of assay [1]: In-solution screening of CaP precipitation and aggregation in artificial renal tubular fluid (RTF). It is filed as physicochemical. The note with it: 9 mM phosphate, 8 mM calcium, 4 h. The protocol: Effects of (A) OEG2-IP5, (B) OEG11-IP5, (C) (OEG2)2-IP4, (D) (OEG11)2-IP4 and (E) OEG8-(IP5)2. on CaP precipitation in RTF spiked with 9 mM disodium phosphate and 8 mM calcium chloride were assessed by light microscopy followed by automated image analysis at t=4 h. Quantification of the total area covered with CaP precipitates/total area field of view (N=3, mean+SD, normalized to the control).
Effects of (A) OEG2-IP5, (B) OEG11-IP5, (C) (OEG2)2-IP4, (D) (OEG11)2-IP4 and (E) OEG8-(IP5)2. on CaP precipitation in RTF spiked with 9 mM disodium phosphate and 8 mM calcium chloride were assessed by light microscopy followed by automated image analysis at t=4 h. Quantification of the mean size of aggregates/field of view normalized to the ctrl (N=3, mean+SD, normalized to the control).
Overview table showing the minimal concentration of compound (FIG. 3 for the chemical structures) required to achieve complete inhibition of CaP precipitation (total area covered with crystals <10% of total area control); and minimal concentration required to prevent CaP crystal aggregation in the CaP screening assay (CaP aggregate size <50% of aggregate size control) (N=3).
An artificial renal tubular fluid (RTF) with a final composition of 0.05 mM oxalate, 0.005 mM sulphate, 408 mM sodium, 424 mM chloride, 0.26 mM potassium, 4 mM magnesium and 0.2 mM citrate in double distilled water was prepared according to a literature report (Fasano, J. M. et al., Kidney Int. 59, 169-178. DOI: 10.1046/j. 1523-1755.2001.00477.x, 2001). The solution was filtered with a 0.45-μm syringe filter. Twenty mM Bis-Tris buffer was added to the reported protocol to ensure pH stability throughout experiments and pH was set to 7.2. The artificial RTF was stored at room temperature for up to four months. Stock solutions of 0.25 M phosphate and 1 M calcium were prepared in double distilled water and were stored separately at −20° C.
Twenty-x final concentration phosphate, 20× final concentration calcium and 10× final concentration compound dilutions were prepared in RTF. Assay mixture consisting of 80% RTF, 10% compound dilution, 5% phosphate dilution and 5% calcium dilution was prepared in Eppendorf tubes as follows. RTF (320 μL) was mixed with 20 μL phosphate dilution (final concentration of 9 mM), 40 μL compound dilution and 20 μL calcium dilution (final concentration of 8 mM). The assay mixture was vortexed after adding each component and 380 μL of the mixture were immediately added to 8-well glass bottom slides and incubated for 4 hat RT. CaP precipitation was assessed using a Leica DM 6000B microscope (Leica Microsystems, Wetzlar, Germany) in brightfield mode. For quantification 3 wells/condition with 3-4 images/well were imaged with a 40× objective. The total area covered with CaP deposits in percentage of the field of view and the mean size of CaP aggregates were determined.
In a first step, the influence of selected IP6 analogues (FIG. 5) on CaP precipitation and growth was assessed in vitro using artificial renal tubular fluid (RTF) (Table 1). In a previous study, the inventors investigated CaP protein particle formation in serum. However, an important difference to cardiovascular calcification lies in the extremely low protein content of the renal tubular fluid vs. the high abundance of proteins in blood, which can stabilize amorphous particles. Two cut-offs were chosen for assessing efficacy. First, complete inhibition was defined as a >90% reduction of detected CaP precipitates compared to the control sample without compound. Second, inhibition of CaP aggregation was defined as a >50% reduction of the mean size of aggregates when compared to the control.

The subject of assay [2] is RPTEC/TERT 1 human proximal tubule cells. The assay can be described thus: Imaging assay of CaP adhesion/deposition and cellular changes on RPTEC monolayers. Conditions: RPTEC, 7 mM phosphate, 5 mM calcium, 24 h. It is filed as cell-based. The source says: (A) Heatmap and hierarchical clustering of extracted image features. (B) Selected single features describing cellular changes upon increasing (OEG2)2-IP4 concentrations are depicted. Total cell count, dead cell count, single cell area and single cell solidity, a measure of cell compactness, are shown. (C) Selected single features describing changes in the CaP deposition and membrane pattern upon increasing (OEG2)2-IP4 concentrations are depicted. The total area of the binary calcein staining, colorimetric quantification of calcium content extracted from the monolayer, the maximum intensity of the calcein fluorescence, structural similarity index metric (SSIM) and the correlation of the CellMask channel image are shown. (D) Example brightfield, calcein, CellMask and EthD channel images and two zoomed-in regions of interests (ROI) of RPTEC treated with 13 μM (OEG2)2-IP4 are shown. Mean scaled values per individual experiment are plotted (N=3). Pos.ctrl presents treatment with 5/7 mM Ca/P, neg.ctrl presents medium without Ca/P spiking (=1/1 mM Ca/P present in normal cell medium). Mean of three individual experiments and SD is plotted as grey horizontal and vertical line respectively, one-way ANOVA with Dunnet's multiple comparison between each concentration to pos. ctrl was performed (* p<0.01).
RPTEC/TERT 1 monolayers at confluence were treated with medium spiked with 7 mM disodium phosphate, 5 mM calcium chloride and compound and were incubated for 24 h. The amount of CaP deposits and the extent of cell injury were detected by calcein and EthD staining, respectively. Fluorescence images were quantified using Matlab. Quantification of the area covered with CaP deposition on RPTEC monolayers with (A) OEG2-IP5, (B) OEG11-IP5, (C) (OEG2)2-IP4, and (D) OEG8-(IP5)2 treatment. (N=3, mean+SD, one-way ANOVA with Dunnett's multiple comparison, * p<0.05, ** p<0.01, *** p<0.001).
RPTEC/TERT 1 human proximal tubule cells (RPTEC) were cultured in T75 tissue culture flasks using ProxUp basal medium mixed with ProxUp supplements at 37° C. and 5% CO2 according to manufacturer's recommendations. Cells were used up to passage 30 and regularly tested for Mycoplasma infections. For experiments, RPTEC were cultured in 24-well plates at a seeding density of 150′000 cells/cm^2. Cell viability assessment and cell counting before seeding was performed using an automated cell counter (BioRad TC 20, Hercules, CA, USA).
For the comparison of selected IP6 analogues, ProxUp basal medium was prepared with the selected inhibitor and added to each well. Then, CaP precipitation was induced by direct addition of first, phosphate and second, calcium. Final concentrations of 7 mM phosphate and 5 mM calcium were used. Cells were incubated for 24 h at 37° C. and 5% CO2. Spiked medium was removed, and cells were washed twice with PBS before staining.
For staining, ProxUp basal medium was mixed with calcein (500 nM final concentration), EthD (6 μM final concentration), CellMask stain ([…]) and Hoechst 33342. Staining mixture was added to RPTEC and cells were incubated for 30 min in the dark at 37° C. and 5% CO2. Staining solution was removed, cells were washed with PBS once and ProxUp basal medium was added. Cells were immediately imaged after staining. Images were obtained by epifluorescence microscopy at 37° C., using a Leica CTR6000 microscope. For quantification 3 wells/condition were prepared and 3 images/well were taken. For preliminary adhesion experiments images were taken with a 10× objective, for the imaging assay 20× objective images were taken.
Multichannel images were saved as individual channel images in 8-bit tiff format. For analysis Hoechst channel images were thresholded using the triangle threshold. Touching nuclei of the binary image were further segmented using the watershed algorithm with the distance transform of the binary image as input and local maxima thereof as seeds. […]

The test system of assay [3] is transition of primary CPPs to secondary CPPs. Kind of assay: calciprotein particle (CPP) maturation time in human serum (Pasch test, FIG. 1). The note with it: human pooled serum, 37° C., nephelometer up to 600 minutes. The source says: The y-axis indicates the half-maximal transition time (T50) in minutes of primary CPPs to secondary CPPs. IP6: myo-inositol hexakisphosphate (Biosynth); IS6: myo-inositol hexakissulfate (Sigma); IP2S4: 4,6-di-(O-phosphate)-myo-inositol 1,2,3,5-tetra-O-sulfate; IT2S4: 4,6-di-(O-thiophosphate)-myo-inositol 1,2,3,5-tetra-O-sulfate; IP5-PEG: 2-PEG(2000)-myo-inositol pentakisphosphate.
(§1) The inventors performed an in vitro assay that measures the propensity for calcification of human serum and has been clinically validated as a predictor of all-cause mortality in CKD patients and renal transplant recipients (as described in Pasch, Journal of the American
Society of Nephrology 23, 1744-1752, 2012). The experiment was carried out by mixing a calcium solution, human pooled serum, the test compound at the final concentration indicated and a phosphate solution, and the transition time of primary to secondary CPPs was measured at 37° C. using a nephelometer for up to 600 minutes.

Assay [4] shares this test system. The assay can be described thus: CPP maturation time in human serum, similar test with test compounds added last (FIG. 2). Conditions: test compounds added to the reaction mixture last. How it is done: as §1
Society of Nephrology 23, 1744-1752, 2012). […], and the transition time of primary to secondary CPPs was measured at 37° C. using a nephelometer for up to 600 minutes.

As to `COCCOCCO[C@@H]1[C@@H](OP(=O)(O)O)[C@H](OP(=O)(O)O)[C@@H](OP(=O)(O)O)[C@@H](OP(=O)(O)O)[C@H]1OP(=O)(O)O` [OEG2-IP5], in assay [1], the “concentration for complete inhibition of CaP precipitation (>90% reduction of CaP precipitates vs control)” value was 30 µM and the “concentration for inhibition of CaP aggregation (>50% reduction of mean size of aggregates vs control)” value was 1 µM. Also, in assay [2], the “concentration achieving complete inhibition of CaP adhesion” value was determined as 50 µM.

For `O=P(O)(O)OC1C(OS(=O)(=O)O)C(OP(=O)(O)O)C(OS(=O)(=O)O)C(OS(=O)(=O)O)C1OS(=O)(=O)O` (stereo not shown) [IP2S4, 4,6-di-(O-phosphate)-myo-inositol 1,2,3,5-tetra-O-sulfate], the “activity on half-maximal transition time (T50) of primary CPPs to secondary CPPs” value (shortened to “activity on half-maximal transition time”) in assay [3] is on record as “more active than IP6”. In the case of `O=S(=O)(O)OC1C(OS(=O)(=O)O)C(OS(=O)(=O)O)C(OS(=O)(=O)O)C(OS(=O)(=O)O)C1OS(=O)(=O)O` (stereo not shown) [IS6, myo-inositol hexakissulfate, reference compound], in assay [1], the “effect on CaP precipitation/crystallization in words” value is listed as “weak inhibitory properties”. Turning to “2-PEG(2000)-myo-inositol pentakisphosphate [Compound 2-PEG-IP5]”, in assay [3], the “activity on half-maximal transition time” value was “far more active than any other compound”. For `COCCOCCO[C@@H]1C(OP(=O)(O)O)[C@H](OCCOCCOC)[C@@H](OP(=O)(O)O)C(OP(=O)(O)O)[C@H]1OP(=O)(O)O` (stereo partly shown) [INS-3001], the “activity on transition time of primary to secondary CPPs” value in assay [4] is on record as “more active than IP6; also recorded: more active than the compounds having one PEG moiety”.

Take `COCCOCCOCCOCCOCCOCCOCCOCCOCCOCCOCCO[C@@H]1[C@@H](OP(=O)(O)O)[C@H](OP(=O)(O)O)[C@@H](OP(=O)(O)O)[C@@H](OP(=O)(O)O)[C@H]1OP(=O)(O)O` [OEG11-IP5]: the aggregation inhibitory concentration in assay [1] was determined as 300 nM. The “concentration achieving complete inhibition of CaP adhesion” value in assay [2] turned out to be 50 µM. In the case of `O=P(O)(O)O[C@H]1[C@H](OP(=O)(O)O)[C@@H](OP(=O)(O)O)[C@H](OP(=O)(O)O)[C@@H](OP(=O)(O)O)[C@H]1OP(=O)(O)O` [IP6, myo-inositol hexakisphosphate, reference compound], the concentration at which CaP precipitation was promoted in assay [1] is 10 µM.

Regarding `O=P(O)(O)OC1[C@@H](OP(=O)(O)O)[C@H](OP(=O)(O)O)C(O)[C@H](OP(=O)(O)O)[C@H]1OP(=O)(O)O` (stereo partly shown) [IP5, myo-inositol pentakisphosphate, reference compound], the concentration at which CaP precipitation was promoted in assay [1] was 30 µM. `O=S(=O)(O)O[C@@H]1[C@@H](OP(O)(O)=S)[C@H](OS(=O)(=O)O)[C@H](OS(=O)(=O)O)[C@H](OS(=O)(=O)O)[C@H]1OP(O)(O)=S` [IT2S4, 4,6-di-(O-thiophosphate)-myo-inositol 1,2,3,5-tetra-O-sulfate]: the “activity on half-maximal transition time” value in assay [3] is reported as “more active than IP6”. Take “cyclohexane hexacarboxylic acid [IC6, reference compound]”: the “effect on CaP precipitation/crystallization in words” value in assay [1] is given as “weak inhibitory properties”.
